Data on three substances can be found in paper PMC4439283 (The FEBS journal, 2015).

Read-outs that look alike come from different tables or passages of the source.

The target in series [1] is biotinylated ECL2S peptide (Biotin-GSGS-CCR5 R168-K197 C178S-GSGS) (human). Briefly: SPR. Background: Surface plasmon resonance follows binding to a sensor surface in real time, without labels.
The target is the same in series [2]. Briefly: SPR. This is another data set of the same source.
For series [3] the target is unchanged. Briefly: SPR. The source holds these as a separate data set.
The conditions of series [4]: in solution; ref [16]; cited from earlier work.
Series [5] concerns R5 viruses. The following applies: ref [15], cited from earlier work.
Series [6] concerns X4 viruses. The conditions noted are these: ref [15]; cited from earlier work.
In series [7] the test system is R5 viruses. The conditions noted are these: ref [16]; cited from earlier work.
For series [8], the system named is X4 viruses. The conditions noted are these: ref [16]; cited from earlier work.
The subject of series [9] is X4 strain LAV. The following applies: ref [15]; cited from earlier work.

For the substance “^mutgp120_(core) (HIV-1 JR-FL gp120 88-492, ΔV1/V2, V3 replaced by GAG, non-aggregating mutant) (domain or fragment)”, the Kd in series [1] came to 18 µM.

Regarding ^mutgp120_(core)/CD4M33 complex, the Kd in series [2] worked out at 7 µM; in series [3] it was 7.5 µM; in series [1], 6 µM.

For the substance “PL2: CCR5 ECL2 peptide, residues 168-191 (RSQKEGLHYTCSSHFPYSQYQFWK; UniProt P51681 168-191, looked up, fragment)”, the “conformation of free peptide” value in series [4] is reported as “unstructured in solution”. For the same substance, in [5] (R5 strains), the strain specificity entry is “specific for R5 strains”. Besides, in [5] (R5 virus Ba-L), the “50% inhibition concentration, fusion” value is 20 µg/mL. Also, the “fusion inhibition, R5 viruses” value in series [5] (fusion of R5 viruses with target cells) is reported as “inhibited the fusion of R5 viruses with target cells”. The “fusion inhibition, X4 viruses” value in series [6] is reported as “did not inhibit fusion of X4 viruses”. Besides, the neutralization concentration range in series [7] and in series [8] was around 100 µM throughout. Further, the “neutralization of X4 strain LAV” value in series [9] is reported as “None of these peptides neutralized the X4 strain LAV”.

One may read the Kd as the free concentration of one partner at which half of the binding sites on the other are occupied at equilibrium, for simple one-to-one binding. Read a low Kd as a tighter complex.
